This assay concerns the target T1, PYL6 / PP2Cs (HAB1, ABI1, ABI2) (Arabidopsis thaliana, UniProt Q8S8E3).
T1 construct: made in house; host or cells: not expressly stated for PYL6
T1 sequence (Q8S8E3 1-215): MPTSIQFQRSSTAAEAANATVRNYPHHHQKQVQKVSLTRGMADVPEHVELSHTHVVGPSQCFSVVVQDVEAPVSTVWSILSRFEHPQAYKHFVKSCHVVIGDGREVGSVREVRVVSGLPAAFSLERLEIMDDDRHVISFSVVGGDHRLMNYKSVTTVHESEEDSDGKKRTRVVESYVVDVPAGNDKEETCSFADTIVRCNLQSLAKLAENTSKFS
As to the kind of experiment: In vitro PYL6-PP2C interaction. The following applies: purified proteins in vitro. It counts as biochemical. Here is the method:
To determine the biochemical basis of these observations, we used purified proteins of PYR1 and PYL1 to PYL6 to measure their interactions with three PP2Cs, HAB1, ABI1, and ABI2, in vitro. […] In phosphatase assays, pyrabactin promoted PYR1, PYL1, PYL3, PYL5, and PYL6, but not PYL2 and PYL4, to inhibit all three PP2Cs.
Mutant proteins were expressed as H6GST-fusion proteins and purified by glutathione sepharose chromatography. Protein-protein interactions were determined by luminescence proximity AlphaScreen assay. Biotinylated PP2C proteins for the luminescence proximity assay were generated by in vivo biotinylation of avitag-PP2C fusion proteins. PP2C phosphatase activity was measured by phosphate release from a SnRK2.6 phosphoprotein.
Interactions between PYR/PYL and PP2Cs were assessed by luminescence-proximity AlphaScreen technology (Perkin Elmer). Briefly, biotinylated PP2Cs were attached to streptavidin-coated donor beads, and H6-tagged PYR/PYL receptors were attached to nickel-chelated acceptor beads. The donor and acceptor beads were brought into proximity by the interactions between PYR/PYLs and PP2Cs, which were measured with and without ligands. When excited by a laser beam of 680 nm, the donor beam emits singlet oxygen that activates thioxene derivatives in the acceptor beads, which releases photons of 520-620 nm as the binding signal. […]

Turning to `O=S(=O)(NCc1ccccn1)c1ccc(Br)c2ccccc12` [Pyrabactin, pyrabactin], the “Promotion of PYL6 interaction with the three PP2Cs” value is “promoted interaction”.

The values above are taken from patent publication US20130045952A1, “ABA Receptor Agonists for Increased Plant Stress Resistance” (Van Andel Research Institute, priority 2011, published 2013).
